Results on one substance are retold here after patent US20260071220A1, “CONJUGATE OF NUCLEOTIDE ANALOG-CONTAINING DOUBLE-STRANDED RNAI ANALOG” (BaseCure Therapeutics LLC, priority 2022, published 2026).

For one data set, the system named is AGT mRNA. Kind of data set: Compound activity experiment in Huh7 cell line (transfection, AGT mRNA by qPCR). The format is cell-based, human. As to conditions: Huh7, RNAiMAX transfection, 24 h. As to the method:
1. Objective: this study aims to evaluate the inhibitory effect of the conjugate described in this patent on a target gene using a Huh7 cell line. The inhibitory activity of the compound on target gene AGT is evaluated based on the EC50 value of the compound as an index.
Huh7 cells were provided by Shanghai WuXi AppTec New Drug Development Co., Ltd. Hub7 cells were cultured in MEM medium containing 10% fetal bovine serum and 1% penicillin streptomycin.
1) On Day 1, a mixed solution of an RNAiMAX transfection reagent and Opti-MEM was prepared as needed in a ratio of RNAiMAX transfection reagent:Opti-MEM=1.5:48.5, and incubated for 15 min at room temperature;
2) For cells in each well, a certain amount of diluted compound was taken and added into an equal amount of RNAiMAX Optim-MEM medium to be mixed well, and then incubated for 15 min;
3) Huh7 cells were taken and washed with DPBS, digested with trypsin, and the density of the cells was adjusted to an appropriate density;
4) The cells were seeded into a 96-well plate at a density of 2,0000 cells/well while adding a mixture of 20 μL Opti-MEM RNAiMax and the compound into the cell culture plate, and the volume of the final medium for each well was 120 μL.
5) The cells were incubated for 24 h in an incubator under the conditions of 5% CO2 and 37° C. […]
The cDNA of the target gene was detected by qPCR. qPCR was carried out in a 384-well plate using GAPDH as an internal reference gene. […]
This method requires the introduction of the internal reference gene GAPDH, as the internal reference gene is expressed in all the cells and its product is necessary for maintaining cell survival; and the expression level or copy number of the genome in cells remains constant and is less affected by environmental factors. After qRT-PCR, the CT value of the internal reference will also be recorded, called Ct (GAPDH), and the CT value of the sample is called Ct (sample).

For another data set, the system named is Transcriptome. The data set is described as follows: In vitro RNA sequencing study (off target risk). Format: cell-based. From the text:
Transcriptome refers to a sum of all RNA transcripted from specific tissues or cells at a certain time or state, mainly including mRNA and non-encoding RNA. Transcriptome sequencing is to study all mRNA transcripted from specific tissues or cells during a certain period based on an Illumina sequencing platform, is a basis for gene functions and structure study, and plays an important role in understanding the development of organisms and the occurrence of diseases. With the development of gene sequencing technologies and reduction in sequencing cost, RNA-seq, with its advantages of high throughput, high sensitivity and wide application range, has become a main method for transcriptome study. The RNA-seq technical process mainly includes two parts: library construction and sequencing, and biological information analysis.
RNA was extracted from tissues or cells using a standard extraction method, and subsequently serious quality control was performed on RNA samples. The quality control method was mainly achieved by Agilent 2100 bioanalyzer to precisely detect the integrity of RNA.
mRNA was obtained mainly by the following two methods: one was to utilize the structural feature that most mRNA in eukaryotes had polyA tails to enrich mRNA with polyA tails using Oligo (dT) magnetic beads; and the other one was to remove ribosomal RNA from total RNA to obtain mRNA. Subsequently, the obtained mRNA was randomly fragmented using divalent cations in NEB Fragmentation Buffer, and library construction was carried out using either an NEB ordinary library construction method or a strand specific library construction method.
NEB ordinary library construction: a first strand of a cDNA was synthesized in an M-MuLV reverse transcriptase system by using fragmented mRNA as a template and random oligonucleotides as primers. Subsequently, the RNA strand was digested using RNaseH, and a second strand of the cDNA was synthesized in a DNA polymerase I system using dNTPs as a raw material. The purified double-stranded cDNA was subjected to end repair, A tail addition and sequencing linker linkage. About 250-300 bp cDNAs were screened using AMPure XP beads and subjected to PCR amplification, and the PCR product was purified again using AMPure XP beads to finally obtain a library. A kit for library construction was NEBNext® Ultra™ RNA Library Prep Kit for Illumina®.
Strand specific library construction: a method for synthesizing the first strand of cDNA was the same as the NEB ordinary library construction method except that when the second strand was synthesized, dTTP in dNTPs was replaced by dUTP, and then end repair, A tail addition, sequencing linker linkage and length screening of cDNA were similarly carried out. Subsequently, the second strand of cDNA containing U was digested using USER enzyme followed by PCR amplification to obtain the library. […] A kit used for the library construction was NEB Next® Ultra™ Directional RNA Library Prep Kit for Illumina®.
After library construction was completed, preliminary quantification was carried out using Qubit2.0 Fluorometer. The library was diluted to 1.5 ng/uL, and subsequently the insert size of the library was detected using Agilent 2100 bioanalyzer. After the insert size met the expectation, the effective concentration of the library was accurately quantified by QRT-PCR (the effective concentration of the library was higher than 2 nM) to ensure the quality of the library.
After library inspection was qualified, different libraries were subjected to Illumina sequencing after pooling according to effective concentration and target offline data volume requirements. The basic principle of sequencing was sequencing by synthesis. Four fluorescent labeled dNTPs and DNA polymerases as well as linker primers were added in the sequenced flow cell for amplification. […]

In the oligonucleotide strings, read from the 5' end, every base follows the letter of its sugar. An asterisk marks phosphorothioate; unmarked linkages are phosphodiester. Other units and linkages are bracketed, terminal groups are in braces. A string of capitals states the bases alone. {D01} = GalNAc ligand D01, attached to sense strand by a phosphodiester bond; m = 2'-O-methyl; f = 2'-fluoro

Regarding “Conjugate 2: Double-stranded RNAi analog against AGT, D01 GalNAc ligand on sense strand; sense SEQ ID NO: 6, antisense SEQ ID NO: 2 containing Z (sense mA*mU*fCfCmAfCfAfAmUmGmAmGmAfGmUmAmCmA-{D01}; antisense CUCACAUGUACNCUCAUUGUGGAUGACGA; antisense: chemistry not given here; antisense strand modified, includes nucleotide analog Z, further chemistry not fully specified)”, the “Emax (remaining AGT mRNA)” value with AGT mRNA is 5%. In the data set on AGT mRNA (AGT mRNA, read-out: Absolute EC50), the EC50 is 5.92 pM. The “Log (concentration)” value with AGT mRNA (log of the absolute EC50 (matches nM)) is −2.228. In addition, in the data set on Transcriptome (number of downregulated genes, average), the “Downregulate Average” value is given as 658. The “Downregulate N = 1” value in the data set with Transcriptome (number of downregulated genes, replicate 1) came out at 1006. Also, the “Downregulate N = 2” value in the data set on Transcriptome (number of downregulated genes, replicate 2) is listed as 309. Moreover, the “Upregulate Average” value in the data set on Transcriptome (number of upregulated genes, average) is on record as 722. In the data set on Transcriptome (number of upregulated genes, replicate 1), the “Upregulate N = 1” value stood at 1033. Also, the “Upregulate N = 2” value with Transcriptome (number of upregulated genes, replicate 2) is given as 410. For the same substance, in the data set on Transcriptome (total regulated genes, average), the “Total Average” value was 1379. Moreover, in the data set on Transcriptome (total regulated genes, replicate 1), the “Total N = 1” value is 2039. Besides, the “Total N = 2” value with Transcriptome (total regulated genes, replicate 2) turned out to be 719.
